Laboratory results published in the NIST ThermoML archive (doi:10.1021/je700297c).
± gives the expanded uncertainty stated by the source.

Experiment: activity coefficient (dimensionless); of the first substance listed, at infinite dilution; xn = mol fraction of the nth substance listed
Settings: Liquid, Chromatography, x1 = 0

Row | Compound | activity coefficient (298 K) | activity coefficient (323 K) | activity coefficient (303 K) | activity coefficient (333 K)
1 | C=CCCCCCC [oct-1-ene] + CCCCn1cc[n+](C)c1.F[B-](F)(F)F | 59.1 ± 4 | 48.3 ± 3.3 |  | 
2 | C=CCCCCCC [oct-1-ene] + C[n+]1ccn(CCCC#N)c1.N#CN=C=[N-] |  | 136 ± 9.3 | 142 ± 9.8 | 
3 | C=CCCCCCC [oct-1-ene] + C[n+]1ccn(CCCC#N)c1.O=S(=O)([N-]S(=O)(=O)C(F)(F)F)C(F)(F)F |  | 106 ± 7.2 | 119 ± 8.1 | 
4 | CCCCCCCC [octane] + CCCCCCCCCCCCCCCC(=O)[O-].CCCCn1cc[n+](C)c1 |  |  |  | 1.6 ± 0.1
5 | CCCCCCCC [octane] + CCCCCCCCCCCCCCCCCC(=O)[O-].CCCCn1cc[n+](C)c1 |  | 2.1 ± 0.2 |  | 1.6 ± 0.1
6 | CCCCCCCC [octane] + CCCCCCCC[n+]1ccn(C)c1.F[B-](F)(F)F | 16.1 ± 1.1 | 11 ± 0.8 |  | 
7 | CCCCCCCC [octane] + CCCC[n+]1ccn(C)c1.O=S(=O)([N-]S(=O)(=O)C(F)(F)F)C(F)(F)F |  | 23.4 ± 1.6 |  | 
8 | CCCCCCCC [octane] + CCCCn1cc[n+](C)c1.F[B-](F)(F)F | 117 ± 8 | 95.5 ± 6.5 |  | 
9 | CCCCCCCC [octane] + C[n+]1ccn(CCCC#N)c1.N#CN=C=[N-] |  | 204 ± 14 | 264 ± 18 | 
10 | CCCCCCCC [octane] + C[n+]1ccn(CCCC#N)c1.O=S(=O)([N-]S(=O)(=O)C(F)(F)F)C(F)(F)F |  | 159 ± 11 | 191 ± 13 | 
11 | C1CCOC1 [tetrahydrofuran] + CCCCCCCCCCCCCCCC(=O)[O-].CCCCn1cc[n+](C)c1 |  |  |  | 0.6 ± 0.1
12 | C1CCOC1 [tetrahydrofuran] + CCCCCCCCCCCCCCCCCC(=O)[O-].CCCCn1cc[n+](C)c1 |  | 0.7 ± 0.1 |  | 0.6 ± 0.1
13 | C1CCOC1 [tetrahydrofuran] + CCCCCCCC[n+]1ccn(C)c1.F[B-](F)(F)F | 0.7 ± 0.1 | 0.6 ± 0.1 |  | 
14 | C1CCOC1 [tetrahydrofuran] + CCCC[n+]1ccn(C)c1.O=S(=O)([N-]S(=O)(=O)C(F)(F)F)C(F)(F)F |  | 0.4 ± 0.1 |  | 
15 | C1CCOC1 [tetrahydrofuran] + CCCCn1cc[n+](C)c1.F[B-](F)(F)F | 1.4 ± 0.1 | 1.4 ± 0.1 |  | 
16 | C1CCOC1 [tetrahydrofuran] + C[n+]1ccn(CCCC#N)c1.N#CN=C=[N-] |  | 1.5 ± 0.1 | 1.6 ± 0.1 | 
17 | C1CCOC1 [tetrahydrofuran] + C[n+]1ccn(CCCC#N)c1.O=S(=O)([N-]S(=O)(=O)C(F)(F)F)C(F)(F)F |  | 1.2 ± 0.1 | 1.3 ± 0.1 | 
18 | c1ccsc1 [thiophene] + CCCCCCCCCCCCCCCC(=O)[O-].CCCCn1cc[n+](C)c1 |  |  |  | 0.9 ± 0.1
19 | c1ccsc1 [thiophene] + CCCCCCCCCCCCCCCCCC(=O)[O-].CCCCn1cc[n+](C)c1 |  | 0.8 ± 0.1 |  | 0.8 ± 0.1
20 | c1ccsc1 [thiophene] + CCCCCCCC[n+]1ccn(C)c1.F[B-](F)(F)F | 0.9 ± 0.1 | 0.8 ± 0.1 |  | 
21 | c1ccsc1 [thiophene] + CCCC[n+]1ccn(C)c1.O=S(=O)([N-]S(=O)(=O)C(F)(F)F)C(F)(F)F |  | 0.7 ± 0.1 |  | 
22 | c1ccsc1 [thiophene] + CCCCn1cc[n+](C)c1.F[B-](F)(F)F | 1.7 ± 0.1 | 1.5 ± 0.1 |  | 
23 | c1ccsc1 [thiophene] + C[n+]1ccn(CCCC#N)c1.N#CN=C=[N-] |  | 1.6 ± 0.1 | 1.7 ± 0.1 | 
24 | c1ccsc1 [thiophene] + C[n+]1ccn(CCCC#N)c1.O=S(=O)([N-]S(=O)(=O)C(F)(F)F)C(F)(F)F |  | 1.4 ± 0.1 | 1.5 ± 0.1 | 
25 | Cc1ccccc1 [toluene] + CCCCCCCCCCCCCCCC(=O)[O-].CCCCn1cc[n+](C)c1 |  |  |  | 0.8 ± 0.1
26 | Cc1ccccc1 [toluene] + CCCCCCCCCCCCCCCCCC(=O)[O-].CCCCn1cc[n+](C)c1 |  | 0.8 ± 0.1 |  | 0.8 ± 0.1
27 | Cc1ccccc1 [toluene] + CCCCCCCC[n+]1ccn(C)c1.F[B-](F)(F)F | 1 ± 0.1 | 0.9 ± 0.1 |  | 
